The text below walks through data of US9400281B2, “Method of screening of therapeutic agents for K-Ras mutant driven cancers” (PUSAN NATIONAL UNIVERSITY INDUSTRY-UNIVERSITY COOPERATION …, priority 2008, dated 2016).

Where two headings read alike, the source gives them in different places.

The test system of one data set is A549 and Capan-1. The data set is described as follows: Expression of median (culture media) p53 in A549 and Capan-1. The data set is classed as cell-based. To be noted: A549 and Capan-1, FIG. 15B. Here is the method: (§1) Also, protease inhibitor (PMSF) and endocytosis inhibitor (Brefeldin A; BFA) were treated into A549 and Capan-1.
A further data set relates to A549. The data set is described as follows: Location of recombinant p53 in A549 whole cell lysate (endocytosis). The data set is classed as cell-based. Particulars: A549, FIG. 15C. Here is the method:
First, A549 and MKN 45 cells were treated with recombinant p53, and their locations were identified. In comparison with control protein (His-lamin A) recovered from media, His-p53 was expressed in whole cell lysate of A549 (FIG. 15A). In addition, His-p53 was completely removed from MKN45 cells and culture media thereof (FIG. 15A).
as §1

Data set [1] concerns A549 (K-Ras mutant cancer cell line). The data set is described as follows: Cell death rate by tryphan blue cell counting, A549. Particulars: A549 (A546 [sic]). In kind it is cell-based. The text has this:
(§2) To confirm that the p53 induction of the compounds is related to K-Ras, A549 and HCT116, which are K-Ras mutant cancer cell lines, and MKN45, which is K-Ras wild type cancer cell line, were used.

The subject of data set [2] is MKN45 (K-Ras wild type cancer cell line). The data set is described as follows: Cell death rate by tryphan blue cell counting, MKN45. The data set is classed as cell-based.
Excerpt: as §2

Another data set has as its system A549 cells. The data set is described as follows: Xenograft in vivo: A549 cells injected intraperitoneally into athymic mouse. Here is the method:
Athymic mouse was obtained from Daehan Biolink Co. Ltd, and raised under temperature and light conditions (20-23° C., cycle of 12 hours light/12 hours darkness) and fed with sterile diet and water freely. After 2 weeks, 1×10^7 A549 cells were inoculated into the athymic mouse (n=21) by intraperitoneal injection. After 2 weeks, each group was divided into three subgroups and PBS, and 10 mg/kg or 20 mg/kg of the compound 5o were intraperitoneally injected once per week for 10 weeks, and vitality thereof was measured. This animal test was approved by the Animal Protection Committee of Pusan National University, and performed according to a guideline presented by the same.

Data set [3] has as its system HCT116 (K-Ras mutant cancer cell line). Put plainly: Cell death rate by tryphan blue cell counting, HCT116. In kind it is cell-based.
A further data set has as its system MDA-MB 468. Put plainly: Western blot of p21 expression in mutant p53 MDA-MB 468 cells. The data set is classed as cell-based, human. To be noted: for Expression ratio of gene to control, p21: DMSO control = 1.0. For orientation: A western blot detects proteins with antibodies after separation by electrophoresis.
Data set [4] relates to K-Ras mutant cancer cell lines HCT116. The data set is described as follows: Western blot of p53 and p21 expression in K-Ras mutant HCT116 cells. The data set is classed as cell-based. To be noted: Homo sapiens, HCT-116, HCT116, 10 μM. Here is the method:
To confirm whether the compounds prepared according to Examples 1 to 5 are effective for inhibiting SNAIL-p53 binding at cell level, the compound was treated into K-Ras mutant cancer cell lines HCT116 and results were analyzed by western blotting.
Oncogenic K-ras suppresses the p53 activity through SNAIL. In the cell line HCT116, SNAIL is always expressed by K-Ras mutation and bound to p53 to suppress normal activity of p53. If the K-Ras mutant cancer cell line HCT116 is treated with a compound for suppressing SNAIL-p53 binding, p53 is normally activated and more expressed, and target genes of p53 are induced.
First, western blotting was performed to detect expression of p53 and p21, which is a target gene of p53. All cell lines used in the present invention were obtained from ATCC, and maintained in 10% FBS-containing RPMI-1640 or DMEM. Protein was extracted with RIPA buffer solution and a membrane loaded with cell lysate through typical SDS-PAGE and gel transfer method was prepared. After blocking with 5% non-fat dry milk, the membrane was subjected into a typical western blot procedure with an antibody corresponding to each gene. Antibodies used herein were obtained from Cell signaling, SantaCruz. p53 activity was confirmed by expression of p21, which is a target gene of p53.

A further data set deals with SNAIL-p53 binding. The data set is described as follows: GST pull down assay of SNAIL-p53 binding (Experimental Example 2). More on the design: species or system human. Particulars: FIG. 21. The protocol: GST pull down assay is a method for identifying a binding degree of two proteins. GST-fused SNAIL protein and p53 recombinant protein were prepared and treated with the compound 5o or 7a to identify a binding degree of GST-SNAIL protein and p53 protein. […] If MDM2 is over-expressed, proteolysis of p53 is induced to suppress apoptosis occurring through target genes of p53, and an […] of cells is induced. Although MDM2 is a representative control factor of p53, MDM2 is not applied to K-Ras mutant disease or mutant p53 containing disease.
To perform GST pull down assay, three human SNAIL fragments (residues 1-90, 91-112, and 113-264) and p53 fragments (1-93 and 93-292) were expressed in E. coli as GST-fusion protein. Each of the fragments was loaded on to GSH-agarose, washed, and then eluted using a buffer containing 20 mM reduced glutathione. The eluted fractions were purified using an anionexchange chromatography (HitrapQ). The recombinant human p53 protein (residues 94-292) was expressed in E. coli using the vector pET28A which contains a hexa-histidine tag at the C terminus. The p53 protein including the hexa-histidine tag was purified using Ni-NTA affinity and a size exclusion chromatography (Superdex 200). To confirm the direct binding between p53 and SNAIL, agarose-bead conjugated GST or GST-SNAIL was incubated with His-p539 (histidine-p53) in PBS for 45 minutes at 4° C.. After washing with PBS, the precipitated protein was subjected into SDS-PAGE and western blotting.

The test system of data set [5] is SNAIL-mediated p53 suppression. The data set is described as follows: Effect on SNAIL-mediated p53 reduction in transfected cells. In kind it is cell-based. Particulars: SNAIL (or K-Ras) transfected cells. Here is the method:
Also, the effect of the chemicals on SNAIL-mediated p53 suppression was checked. As shown in FIGS. 10E and 10F, p53 reduction by co-transfection of SNAIL was blocked by treatment of chemicals by #3 and #9.
The reduction of p53 by SNAIL was confirmed in real time (see FIG. 13D). Expression of p53 in culture-media was checked and within 2 hours, the expression of p53 in media was detected (see FIG. 13E). Moreover, p53 was detected in cytosol as a vesicle-like-structure in SNAIL or K-Ras transfected cells, and finally detected in an extracellular region (see FIG. 13F). Meanwhile, SNAIL was located in vesicle of cytosol with p53 (see FIG. 17A).
Since p53 is reduced by vesicle-like transport, p53 expression was checked by disrupting cytoskeleton-network by Nocodazole (Noc). […] Despite of cytoplasmic vesicle-like staining of p53 in Noc-treated cells, cellular morphology was changed differentially from control cells (see FIG. 14B). Noc blocked the p53 reduction (see FIG. 14C). Median p53 was disappeared by Noc-treatment, whereas p53 was accumulated in cytoplasm as vesicle (see FIGS. 14D and 14E). Aph/Noc blocked the reduction of p53, which was not achieved by LMB (FIGS. 14F and 14G).

Another data set relates to SNAIL and p53 binding. The data set is described as follows: ELISA system for screening SNAIL-p53 binding inhibitors. More on the design: species or system human. Particulars: His-p53 (93-292) and GST SNAIL. The protocol: To isolate SNAIL-p53 binding inhibitor, ELISA system was prepared. His-p53 (93-292) was immobilized on 96 well plates using 0.5 PFA. After drying and washing, the 96 well plates were incubated with GST SNAIL with 0.1 μM of chemicals (final concentration). After 1 hour incubation, the 96 well plates were washed with TBST and incubated with anti-GST-antibody (1: 10000, 45 min) and anti-mouse-IgG-HRP (1; 50000, 30 min). After washing twice, plates were incubated with a TMB solution and a stop solution. Measurement was performed using an ELISA plate reader.
Background: ELISA stands for enzyme-linked immunosorbent assay.

In the next data set the test system is K-Ras mutated cells. The data set is described as follows: Cell death in K-Ras mutated cells. The data set is classed as cell-based. To be noted: FIG. 11D.
Where [6] appears, read: 10 mg/kg i.p. once per week for 10 weeks.
[7] abbreviates: 20 mg/kg i.p. once per week for 10 weeks.

In the case of `C[C@H]1CCC/C=C/[C@@H]2C[C@H](O)C[C@H]2[C@H](O)/C=C/C(=O)O1` [Brefeldin A], the “Expression of median p53” value in the data set on A549 and Capan-1 is listed as “increased expression of median p53”. The “Location of recombinant p53 in whole cell lysate” value with A549 is reported as “blocked the location of recombinant p53”.

Turning to `COc1ccc(OC)c2c1C(=O)C=C(SCCC(=O)O)C2=O` [Compound 5o, 3-(5,8-dimethoxy-1,4-dioxo-naphthalen-2-ylthio)propanoic acid], the “Cancer cell death rate of compounds with respect to control” value in [1] (5 μM) worked out at 30 ± 4.5%; in data set [1] (20 μM), 62 ± 1.7%; in data set [2] (5 μM), 10 ± 2.9%; in data set [2] (20 μM) it was 18 ± 1.9%; in [3] (5 μM), 35 ± 3.2%; in data set [3] (20 μM) it was 67 ± 2.5%. The “Tumor-caused death (survival)” value in the data set with A549 cells (10 mg/kg and 20 mg/kg, 10 weeks, FIG. 24) is given as “tumor-caused death was prevented”. For the same molecule, the “Tumor development at tumor site A.C” value is on record as 3 (regression) in the data set on A549 cells (setting [6]) and 2 (regression) with A549 cells (setting [7]). The “Tumor development at tumor site Liver” value in the data set with A549 cells (setting [6]) and in the data set on A549 cells (setting [7]) was 0 each time. Also, the “Tumor development at tumor site Lung” value in the data set on A549 cells (setting [6]) and in the data set on A549 cells (setting [7]) was 0 throughout. In addition, the “Tumor development at tumor site Pancreas” value with A549 cells (setting [6]) and in the data set on A549 cells (setting [7]) was 0 each time. In addition, the “Tumor in treated group” value in the data set with A549 cells (FIG. 25) is “almost no tumor”. The “Overall anatomical abnormal finding according to weight loss or injection of the compound” value in the data set on A549 cells (FIG. 26) is on record as “not observed”. The “Expression ratio of gene to control, p21” value with MDA-MB 468 (MDA-MB 468, 5 μM) is 13.5; in the data set with MDA-MB 468 (MDA-MB 468, 10 μM), 25.9; with MDA-MB 468 (MDA-MB 468, 20 μM), 31.3. Also, the “Expression of p21 (target gene of p53)” value with MDA-MB 468 (p53 mutant-type MDA-MB 468, FIG. 23) is “strong”. Besides, the fold induction at 10 µM came to 2.5 in data set [4] (DMSO control = 1.0, read-out: Protein expression ratio of compound to control, p21) and 2.6 in data set [4] (DMSO control = 1.0, read-out: Protein expression ratio of compound to control, p53). Moreover, the “Binding between GST-SNAIL protein and p53” value in the data set with SNAIL-p53 binding was “substantially weak”.

For the molecule `COC(=O)Nc1nc2ccc(C(=O)c3cccs3)cc2[nH]1` [Nocodazole], the “SNAIL-mediated p53 reduction” value in data set [5] is recorded as “blocked the SNAIL or K-Ras mediated p53 reduction”.

For `O=S(=O)(F)Cc1ccccc1` [PMSF], the “Expression of median p53” value with A549 and Capan-1 was “increased expression of median p53”.

Turning to `O=c1c(O)c(-c2ccc(O)c(O)c2)oc2cc(O)cc(O)c12` [Quercetin], the “Inhibition of SNAIL and p53 binding” value in the data set with SNAIL and p53 binding is reported as “identified as an inhibitor of SNAIL-p53 interaction”.

As to `COc1cc(/C=C/C(=O)O)ccc1O` [ferulic acid], the Cell death result with K-Ras mutated cells is given as “evoked cell death”.

For `CCC(=C/[C@H](C)C/C=C/C(C)=C/[C@@H](C)C(=O)[C@@H](C)[C@H](O)[C@@H](C)C/C(C)=C/C(=O)O)/C=C/[C@@H]1OC(=O)C=C[C@@H]1C` [leptomycin B], the “SNAIL-mediated p53 reduction” value in data set [5] was “did not block the SNAIL-mediated p53 reduction”.
